Here are results for 1 molecule from patent US20220313651A1, “INHIBITORS OF ZIKA VIRUS INFECTION” (priority 2019, published 2022).

The target in experiment [1] is T1, ZIKV NS2B-NS3 protein (Zika virus, UniProt Q32ZE1).
T1 construct: 49-97) and NS2 protein (residues 1-185) through a covalent; made in house; host or cells: E. coli
In words: SPR binding to ZIKV NS2B-NS3 protein. The note with it: 1:1 binding model, read-out: Binding affinity (KD) to ZIKV NS2B-NS3 protein. Background: In SPR one partner is held on a chip, and binding of the other changes the refractive index at the surface.
Description: The interactions between the Z-medicaments and ZIKV full-length E or NS2B-NS3 protease were analyzed at 25° C. using the Biacore T200 system. Briefly, ZIKV E or NS2B-NS3 protein was immobilized on a sensor chip (CM5) using the Amine Coupling Kit. The disclosed Z-medicaments at various concentrations were subsequently injected as analytes, and PBS-P (20 mM phosphate buffer containing 2.7 mM KCl, 137 mM NaCl, and 0.05% surfactant P20, pH 7.4) was used as the running buffer. The data were analyzed using Biacore evaluation software (T200 version 1.0), and the curve was fitted with a 1:1 binding model.
Briefly, ZIKV EDIII protein or NS2B-NS3 protein were immobilized on a sensor chip (CM5) using Amine Coupling Kit. […] Biacore BK evaluation software (version 1.1) was applied to analyze the data, and the curve was fitted with a 1:1 binding model.

In experiment [2] the test system is ZIKV human strain R116265 (2016/Mexico). Description: Plaque reduction inhibition assay in Vero E6 cells, ZIKV R116265. The class given is cell-based, Zika virus (ZIKV). The conditions noted are these: Table 7, gossypol derivatives, read-out: ZIKV strains IC50, R116265. The text has this: Vero E6 and LLC-MK2 cells were maintained in Dulbecco's Modified Eagle Medium (DMEM) supplemented with 8% fetal bovine serum (FBS) and penicillin and streptomycin (P/S). C6/36 cells were maintained in Eagle's Minimal Essential Medium (EMEM) supplemented with 5% FBS and P/S. ZIKV strains, including human strains PAN2016 (2016/Panama), R116265 (2016/Mexico), PAN2015 (2015/Panama), FLR (2015/Colombia), R103451 (2015/Honduras), PRVABC59 (2015/Puerto Rico), PLCal_ZV (2013/Thailand), and IbH 30656 (1968/Nigeria), mosquito strain MEX 2-81 (2016/Mexico), and rhesus macaque strain MR 766 (1947/Uganda), were used in the studies. These ZIKV strains were cultured in Vero E6 cells, and viral titers were detected by a standard plaque-forming assay. DENV human strains, including type 1: DENV-1-V1792 (2007/Vietnam), type 2: DENV-2-V594 (2006/Puerto Rico), type 3: DENV-3-V1043 (2006/Puerto Rico), and type 4: DENV-4-PR 06-65-740 (2006/Puerto Rico), were cultured in C6/36 cells, and the viral titers were determined by plaque-forming assay as described above.
A plaque reduction inhibition assay was carried out to measure the inhibitory activity of Z-medicaments against infections of ZIKV and DENV. […] The compound-virus mixtures were then transferred to Vero E6 cells (10^5/well) and incubated at 37° C. for 1 h. […] The cells were washed thoroughly with PBS, and overlaid with DMEM containing 1% carboxymethyl cellulose and 2% FBS, followed by in vitro culture at 37° C. for 4-5 days and then staining with 0.5% crystal violet.
After removal of the unbound compounds by centrifugation after addition of 3% PEG-6000, ZIKV was incubated with Vero E6 cells at 37° C. for 1 h. The cells were then washed with PBS, overlaid with DMEM containing 1% carboxymethyl cellulose and 2% FBS, and cultured at 37° C. for 4-5 days, followed by staining with 0.5% crystal violet.

Experiment [3] concerns ZIKV human strain R116265. Description: ZIKV vertical transmission in pregnant Ifnar1-/- mice. The note with it: 20 mg/kg i.p. In kind it is in vivo. How it is done: Pregnant mice (at embryonic day (E) 12-14) were i.p. treated with ST087010 (20 mg/kg) or DMSO (control) 12 h before and 6, 24 and 48 after infection with ZIKV human strain R116265 (10^3 PFU/mouse). Viral titers were detected, by plaque assay, in sera (FIG. 9A), placenta (FIG. 9B), fetal brain (FIG. 9C), and amniotic fluid (FIG. 9D) at 5 days post infection (dpi). The data are expressed as mean±s.e.m. of mice in each group (n=5), and significant differences among different groups are shown. The detection limit is 25 PFU/ml (for sera and amniotic fluid), or 25 PFU/g (for placenta and fetal brain). Representative images of morphology of mouse uteri and fetuses at 5 dpi are shown. FIG. 9E depicts E17-19 uteri from pregnant mice challenged at E12-14. Fetal morphology (FIG. 9F) and fetal size (FIG. 9G) were detected. ZIKV or caspase-3 signals were measured in placentas by immunofluorescence staining (FIG. 9H). ZIKV and caspase-3 were stained with anti-ZIKV and anti-active caspase-3 antibodies, respectively. Nuclei were stained with DAPI. Representative images of immunofluorescence staining are shown. Magnification, 63×, and scale bar 10 μm.
ST087010 was evaluated for protection against ZIKV-caused fetal damage and death in pregnant Ifnar1^−/− mice. Briefly, groups of 5 pregnant mice (10- to 12-weeks old, E12-14) were injected intraperitoneally with ST087010 (20 mg/kg of body weight), or DMSO (control) 12 h before and 6, 24 and 48 h after i.p. infection with ZIKV (human strain R116265, 10^3 PFU). Five days post-infection, mice were sacrificed; viral titers were determined using plaque assay in sera, placenta, fetal brain and amniotic fluid, and uteri and fetuses were evaluated for morphological and size changes. Placenta was also assessed for apoptosis and viral replication by immunofluorescence staining.
Immunofluorescence staining was carried out to detect ZIKV and caspase-3 signals in ZIKV-infected mouse tissues. […] The slides were analyzed using a confocal microscope (Zeiss LSM 880) and ZEN software, and fluorescent signals were quantified by ImageJ software. […]

The term Kd denotes a measure of binding affinity in units of concentration. In general, IC50 refers to the concentration needed to halve the response being measured. As for `Cc1cc2c(C(C)C)c(O)c(O)c(/C=N/n3c(=O)[nH][nH]c3=O)c2c(O)c1-c1c(C)cc2c(C(C)C)c(O)c(O)c(/C=N/n3c(=O)[nH][nH]c3=O)c2c1O` [ST087010], the Kd in experiment [1] amounted to 19.9 µM. Further, in experiment [2], the IC50 came to 2.91 ± 0.07 µM. The “ZIKV+ or caspase-3 signals in placental tissues” value in experiment [3] (ZIKV R116265, immunofluorescence, vs DMSO) is on record as “undetectable or diminished”. Moreover, in experiment [3] (pregnant mice E12-14, ZIKV R116265 10^3 PFU, 5 dpi), the “Condition of fetuses and uteri morphology” value is listed as “all in good condition”. Further, in experiment [3] (pregnant mice E12-14, ZIKV R116265 10^3 PFU, 5 dpi, vs DMSO), the “Viral titers in sera, placenta, fetal brain and amniotic fluid” value is given as “significantly reduced”.
